Test results as given in patent US11478469B2, “Combination product of BCL-2 inhibitor and MDM2 inhibitor and use thereof in the prevention and/or treatment of diseases” (ASCENTAGE PHARMA (SUZHOU) CO., LTD., priority 2018, dated 2022).

Legend:
[1] = tested on: human RS4;11 (ALL) mouse xenograft tumor; assay: Human RS4;11 ALL mouse xenograft tumor model; type: in vivo; conditions: for antitumor effect in words: 21 days of administration, Compound 6 50 mg/kg qd alone (12.5 or 50 mg/kg in combination), APG-115 50 mg/kg q2d; for CR (tumor complete regression), mice per group, day 21 after administration / PR (tumor partial regression), mice per group, day 21 after administration / RTV on day 21 after administration (mean ± standard error) / T/C (%) on day 21 after administration / Tumor remission rate % on day 21 after administration: Compound 6 50 mg/kg qd and/or APG-115 50 mg/kg q2d; for Tumor remission rate % on day 21 after administration: remission including CR, PR, and SD
Excerpt: A subcutaneous xenograft tumor model of human tumor immunodeficient mice was established by cell inoculation (see: Gould S E et al. Translational value of mouse models in oncology drug development. Nature medicine. 2015 21, 431-439; and, Souers A J et al. ABT-199, a potent and selective BCL-2 inhibitor, achieves antitumor activity while sparing platelets. Nature medicine. 2012 19.202-208): tumor cells in logarithmic growth phase were collected, counted and resuspended in 1×PBS, and the cell suspension concentration was adjusted to 2.5-5×10^7/mL. Using a 1 mL syringe ([…]), the tumor cells were inoculated subcutaneously in the right side of immunodeficient mice, 5-10×106/0.2 mL/mouse (experimental animals were purchased from Beijing Vital River Laboratory Animal Technology Co., Ltd. SCXK (Beijing) 2016-0006). All animal experiments were strictly in accordance with the laboratory animal use and management practices of GenePharma Co., Ltd. and Ascentage Pharma Group Co., Ltd. The calculation of relevant parameters referred to the Chinese CFDA “Guidelines for Non-Clinical Research Techniques of Cytotoxic Antitumor Drugs”.
Animal body weight and tumor size were measured twice a week during the experiment. The conditions and death of the animals were observed every day. Routine monitoring included the effects of tumor growth and treatment on normal animal behaviors, including activity, feeding and drinking situations, weight gain or loss, eyes, coat and other abnormalities in the experimental animals. The deaths and clinical symptoms observed during the experiment were recorded in the raw data. The entire operations of administration, measurement of mouse body weight and tumor volume were performed in a clean bench. Plasma and tumor tissues were collected, weighed and photographed after the end of the last administration according to the experimental protocol. Plasma and tumor samples were frozen and stored at −80° C.
Tumor volume (TV) was calculated as: TV=a×b2/2, in which a and b represented the length and width of the tumor as measured, respectively. The relative tumor volume (RTV) was calculated as: RTV=Vt/V1, in which V1 was the tumor volume at the time of grouping and administration, and Vt was the tumor volume measured on a day after administration. The evaluation index of anti-tumor activity was the relative tumor proliferation rate T/C (%), which was calculated as: relative tumor proliferation rate T/C (%)=(TRTV/CRTV)×100%, in which TRTV was the RTV of the treatment group, CRTV was the RTV of the vehicle control group; tumor remission rate (%) was calculated as: (the number of SD (stable disease), PR (tumor partial regression) and CR (tumor complete regression) in the tumor-bearing mice after treatment)/the total number of mice in the group×100%. Change of body weight %=(measured body weight−body weight at the time of grouping)/body weight at the time of grouping×100%.
The synergistic analysis was performed by the following formula (Gould S E et al. Translational value of mouse models in oncology drug development. Nature medicine. 2015 21, 431-439): synergy factor=((A/C)×(B/C))/(AB/C); A=RTV value of the group administered with A only; B═RTV value of the group administered with B only; C=RTV value of the vehicle control group; AB=RTV value of the group administered with A and B in combination (Clarke R. Issues in experimental design and endpoint analysis in the study of experimental cytotoxic agents in vivo in breast cancer and other models [J]. Breast Cancer Research & Treatment, 1997, 46(2-3): 255-278).
(1) The experimental method was as described in Section (2) of Example 1. RS4;11 carried wild-type p53 and was an ideal model for evaluating the anti-tumor effect of MDM2 inhibitors. […]

[2] = tested on: MOLM-13-Luc systemic human AML; assay: Systemic MOLM-13-Luc human AML xenograft model in NOD SCID mice; type: in vivo, mouse; conditions: compound 6 100 mg/kg qd×21 d; APG-115 100 mg/kg daily for seven days
Experimental: (1) The combined benefits of APG-115 and compound 6 for the therapy of AML was further evaluated in a difficult-to-treat disseminated MOLM-13-Luc systemic human AML model.
The MOLM-13-Luc tumor cells were maintained in vitro as suspension culture in RPMI 1640 medium supplemented with 10% heat inactivated fetal bovine serum (Gibco product), 100 U/mL penicillin and 100 μg/mL streptomycin, at 37° C. in an atmosphere of 5% CO2 in air. The tumor cells were routinely subcultured twice weekly. The cells growing in an exponential growth phase were harvested and counted for tumor inoculation.
The female NOD SCID mice were pre-treated with 2 times of 150 mg/kg cyclophosphamide, QD, at 24 hours before cell inoculation. Each mouse was inoculated with MOLM-13-Luc tumor cells (2×10^6/mouse) in 0.2 mL of PBS via tail vein for tumor development.
Animals were selected for grouping on day 3 after tumor implantation when the average bioluminescence measurement reached 3.18×107 photons/sec. A high dose pulse regimen (i.e. 100 mg/kg daily for seven days) was applied for APG-115 in this study.

Compound | antitumor effect in words [1] | CR (tumor complete regression), mice per group, day 21 after administration [1] | PR (tumor partial regression), mice per group, day 21 after administration [1] | RTV on day 21 after administration (mean ± standard error) [1] | T/C (%) on day 21 after administration [1] | Tumor remission rate % on day 21 after administration [1] | anti-leukemia activity / bioluminescence signals in words [2]
CCN1[C@@H](C(=O)NC23CCC(C(=O)O)(CC2)CC3)[C@H](c2cccc(Cl)c2F)[C@]2(C(=O)Nc3cc(Cl)ccc32)C12CCCCC2 [APG-115] | no tumor growth inhibition effect | 0/5 | 0/5 | 11.1 ± 0.9 | 106% | 0% | remarkedly decreased bioluminescence signals
O=C(NS(=O)(=O)c1ccc(NC[C@H]2COCCO2)c([N+](=O)[O-])c1)c1ccc(N2CCN(CC3=C(c4ccc(Cl)cc4)CC4(CCC4)CC3)CC2)cc1Oc1cnc2[nH]ccc2c1 [Compound 6, (S)-N-((4-(((1,4-dioxan-2-yl)methyl)amino)-3-nitrophe-nyl)sulfonyl)-2-((1H-pyrrolo[2,3-b]pyridin-5-yl)oxy)-4-(4-((6-(4-chlorophenyl)spiro[3.5]non-6-en-7-yl)meth-yl)piperazin-1-yl)benzamide] | excellent antitumor effect | 0/5 | 1/5 | 1.8 ± 0.4 | 17% | 20% | limited anti-leukemia activity
